Here are results for six compounds from patent US7981903B2, “2-[2-{phenylamino}-1H-pyrrolo[2,3-D]pyrimidin-4-yl)amino] benzamide derivatives as IGF-1R inhibitors for the treatment of cancer” (GlaxoSmithKline LLC, priority 2007, dated 2011).

One test deals with T1, human IGF1R (hIGF1R) (Homo sapiens, UniProt P08069).
T1 construct: containing amino acid residues 957-1367 of human IGF1R; made in house; host or cells: Sf9 cells (baculovirus)
Kind of test: TR-FRET kinase assay of purified hIGF1R. To be noted: activated hIGF1R 0.5 nM, 10 μM ATP, values given as pIC50 category, read-out: IGF-1R pIC50 (converted). Type of test: biochemical.

Another test concerns Colo205. Kind of test: Inhibition of cell proliferation (CellTiter-Glo or InCell analyzer), Colo205. Type of test: cell-based. To be noted: Homo sapiens, COLO 205, 72 h / 3 days, values given as IC50 category. Put shortly: In one
The test system of another test is NCI-H929. Kind of test: Inhibition of cell proliferation (CellTiter-Glo or InCell analyzer), NCI-H929. Type of test: cell-based. The note with it: Homo sapiens, 72 h / 3 days, values given as IC50 category. The essentials:
In one

Molecules are shown by their SMILES.

T1 sequence (P08069 957-1367): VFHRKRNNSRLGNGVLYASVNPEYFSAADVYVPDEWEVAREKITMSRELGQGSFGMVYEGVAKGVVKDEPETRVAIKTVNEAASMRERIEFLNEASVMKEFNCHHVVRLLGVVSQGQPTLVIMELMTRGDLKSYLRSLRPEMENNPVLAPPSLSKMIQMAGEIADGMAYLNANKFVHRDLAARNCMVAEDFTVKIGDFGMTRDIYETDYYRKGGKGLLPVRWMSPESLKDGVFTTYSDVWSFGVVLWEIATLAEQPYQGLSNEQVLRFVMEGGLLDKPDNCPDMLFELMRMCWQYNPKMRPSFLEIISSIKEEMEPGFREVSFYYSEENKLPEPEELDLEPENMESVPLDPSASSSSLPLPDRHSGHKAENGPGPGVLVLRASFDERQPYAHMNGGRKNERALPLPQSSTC

Turning to `COc1cc2c(cc1Nc1nc(Nc3cccc(F)c3C(N)=O)c3cc[nH]c3n1)CN(C(C)C)CC2` [Example 236, 2-fluoro-6-[(2-{[2-(1-methylethyl)-6-(methyloxy)-1,2,3,4-tetrahydro-7-isoquinolinyl]amino}-1H-pyrrolo[2,3-d]pyrimidin-4-yl)amino]benzamide], the figures for the IC50 at human IGF1R (hIGF1R), with Colo205 and with NCI-H929 were 1.26 to 3.98 nM, 250 to 1000 nM and less than 250 nM, respectively.
The like results for `CCC(C)N1CCc2cc(OC)c(Nc3nc(Nc4cccc(F)c4C(N)=O)c4cc[nH]c4n3)cc2C1` (stereo not drawn) [Example 237, 2-fluoro-6-[(2-{[6-(methyloxy)-2-(1-methylpropyl)-1,2,3,4-tetrahydro-7-isoquinolinyl]amino}-1H-pyrrolo[2,3-d]pyrimidin-4-yl)amino]benzamide] were, in that order, 1.26 to 3.98 nM, 250 to 1000 nM and less than 250 nM.
For `COc1cc2c(cc1Nc1nc(Nc3cc(F)cc(F)c3C(N)=O)c3cc[nH]c3n1)CN(CCF)CC2` [Example 239, 2,4-difluoro-6-[(2-{[2-(2-fluoroethyl)-6-(methyloxy)-1,2,3,4-tetrahydro-7-isoquinolinyl]amino}-1H-pyrrolo[2,3-d]pyrimidin-4-yl)amino]benzamide] the same measures were 1.26 to 3.98 nM, more than 1000 nM and 250 to 1000 nM.
The like results for `CNC(=O)c1c(F)cccc1Nc1nc(Nc2cc(NC(=O)CN(C)C)ccc2OC)nc2[nH]ccc12` [Example 245, 2-[(2-{[5-[(N,N-dimethylglycyl)amino]-2-(methyloxy)phenyl]amino}-1H-pyrrolo[2,3-d]pyrimidin-4-yl)amino]-6-fluoro-N-methylbenzamide] were, in that order, 1.26 to 3.98 nM, 250 to 1000 nM and less than 250 nM.
Regarding `Cc1cc2c(cc1Nc1nc(Nc3cccc(F)c3C(N)=O)c3cc[nH]c3n1)N(C(=O)CN(C)C)CCC2` [Example 246, 2-[(2-{[1-(N,N-dimethylglycyl)-6-methyl-1,2,3,4-tetrahydro-7-quinolinyl]amino}-1H-pyrrolo[2,3-d]pyrimidin-4-yl)amino]-6-fluorobenzamide], the IC50 is 1.26 to 3.98 nM on human IGF1R (hIGF1R), 250 to 1000 nM in the test with Colo205 and less than 250 nM in the test with NCI-H929.
The like results for `CNC(=O)c1c(F)cccc1Nc1nc(Nc2cc3c(cc2OC)CCN3C(=O)CN(C)C)nc2[nH]cc(F)c12` [Example 253, 2-[(2-{[1-(N,N-dimethylglycyl)-5-(methyloxy)-2,3-dihydro-1H-indol-6-yl]amino}-5-fluoro-1H-pyrrolo[2,3-d]pyrimidin-4-yl)amino]-6-fluoro-N-methylbenzamide] were, in that order, 1.26 to 3.98 nM, 250 to 1000 nM and 250 to 1000 nM.
